In paper PMC7074905, “Multivalent Lactose–Ferrocene Conjugates Based on Poly (Amido Amine) Dendrimers and Gold Nanoparticles as Electrochemical Probes for Sensing Galectin-3” (Nanomaterials, 2020):

Target: T1, Human galectin-3 (Gal-3) (Homo sapiens, UniProt P17931)
T1 construct: gene LGALS3; mainly monomeric in solution
Test: isothermal titration calorimetry
Type: binding
Conditions: 20 mM phosphate pH 7.2, 150 mM NaCl, 25 °C; equal and independent sites model, n = 1.00 buffer and model; tetravalent ligand, n = 0.19 ± 0.05, cross-linking; read-out: K.10^-4 (M^-1)
Excerpt: isothermal titration calorimetry on Human galectin-3 (Gal-3)

T1 sequence (P17931 2-250): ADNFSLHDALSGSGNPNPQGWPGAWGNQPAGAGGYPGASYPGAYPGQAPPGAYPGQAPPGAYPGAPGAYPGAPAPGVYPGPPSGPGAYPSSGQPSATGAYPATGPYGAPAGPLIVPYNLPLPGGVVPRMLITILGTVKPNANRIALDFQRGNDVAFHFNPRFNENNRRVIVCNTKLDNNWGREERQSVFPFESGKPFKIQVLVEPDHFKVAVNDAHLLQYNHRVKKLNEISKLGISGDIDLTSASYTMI

- Kd: 3.14 µM
Substance: G0-PAMAM-(COCH2CH2TACH2FcCH2TACH2Lac)4 [compound 12]
